Results taken from patent US5852008A, “Heteroatom substituted benzoyl derivatives that enhance synaptic response mediated by receptors” (The Regents of the University of California, priority 1995, dated 1998).
“Also recorded” adds a separate entry of the source.

Columns and labels:
[1] = peripheral administration in humans; cited from earlier work
[2] = test system: AMPA receptor; assay: Monosynaptic EPSP responses in the hippocampus of anesthetized rats after intraperitoneal injection; format: in vivo, rat (male Sprague-Dawley); conditions: i.p. 120-180 mg/kg
Method: The time constant for the decay of the EPSP is a measure for the duration of the response.
In these experiments, male Sprague-Dawley rats were anesthetized with urethane (1.7 g/kg) and body temperature was maintained at 37° C. with the use of a heat lamp. A stimulation electrode (two twisted stainless steel wires, 150 μm diameter, insulated with teflon) was placed stereotaxically in the trajectory of the Schaffer collateral (SC) pathway from CA3 to CA1 of the hippocampus (coordinates relative to Bregma: 3.5 mm P., 3.5 mm L., and 3.0-3.7 mm V). A recording electrode (stainless steel, 150 μm diameter, insulated with teflon) was placed in the ipsilateral CA1 field (coordinates relative to Bregma: 3.8 mm P., 2.9 mm L., and 2.2-2.8 mm V.), 100-200 μm ventral to the electrophysiologically-identified CA1 stratum pyramidale (i.e., in the stratum radiatum).
Decay time constants were determined by single exponential fits to the decay phase of the synaptic response and expressed as a percent of the value obtained during the pre-injection control period.

[3] = test system: AMPA receptors; assay: Field EPSP in rat hippocampal slices (field CA1): amplitude and area of AMPA receptor-mediated synaptic responses; format: cell-based, rat (Sprague-Dawley)
Method: The physiological effects of invention compounds can be tested in vitro with slices of rat hippocampus as follows. Excitatory responses (field EPSPs) are measured in hippocampal slices which are maintained in a recording chamber continuously perfused with artificial cerebrospinal fluid (ACSF).
To conduct these tests, the hippocampus was removed from anesthetized, 2 month old Sprague-Dawley rats and in vitro slices (400 micrometers thick) were prepared and maintained in an interface chamber at 35° C. using conventional techniques [see, for example, Dunwiddie and Lynch, J. Physiol. Vol. 276: 353-367 (1978)]. The chamber was constantly perfused at 0.5 ml/min with ACSF containing (in mM): NaCl 124, KCl 3, KH2 PO4 1.25, MgSO4 2.5, CaCl2 3.4, NaHCO3 26, glucose 10 and L-ascorbate 2. A bipolar nichrome stimulating electrode was positioned in the dendritic layer (stratum radiatum) of the hippocampal subfield CA1 close to the border of subfield CA3.
Current pulses (0.1 msec) through the stimulating electrode activate a population of the Schaffer-commissural (SC) fibers which arise from neurons in the subdivision CA3 and terminate in synapses on the dendrites of CA1 neurons. Activation of these synapses causes them to release the transmitter glutamate. Glutamate binds to the postsynaptic AMPA receptors which then transiently open an associated ion channel and permit a sodium current to enter the postsynaptic cell. This current results in a voltage in the extracellular space (the field excitatory postsynaptic potential or field "EPSP") which is recorded by a high impedance recording electrode positioned in the middle of the stratum radiatum of CA1.
For the experiments summarized in FIG. 1, the intensity of the stimulation current was adjusted to produce half-maximal EPSPs (typically about 1.5-2.0 mV). Paired stimulation pulses were given every 40 sec with an interpulse interval of 200 msec (see below). The field EPSPs of the second response were digitized and analyzed to determine amplitude, half-width, and response area. If the responses were stable for 15-30 minutes (baseline), test compounds were added to the perfusion lines for a period of about 15 minutes. The perfusion was then changed back to regular ACSF.
Paired-pulse stimulation was used since stimulation of the SC fibers, in part, activates interneurons which generate an inhibitory postsynaptic potential (IPSP) in the pyramidal cells of CA1. This feed forward IPSP typically sets in after the EPSP reaches its peak. It accelerates the repolarization and shortens the decay phase of the EPSP, and thus could partially mask the effects of the test compounds. One of the relevant features of the feed-forward IPSP is that it can not be reactivated for several hundred milliseconds following a stimulation pulse. This phenomenon can be employed to advantage to eliminate IPSP by delivering paired pulses separated by 200 milliseconds and using the second ("primed") response for data analysis.
These effects are mirrored in the field EPSP, as reported in the literature [see, for example, Staubli et al., Psychobiology supra; Xiao et al., Hippocampus supra; Staubli et al., Hippocampus Vol. 2: 49-58 (1992)].
The variables set forth in the table refer to the following generic structure: [drawing 33]

[4] = test system: hippocampal electroencephalogram; assay: Hippocampal electroencephalogram monitoring for electrographic seizures after i.p. injection; format: in vivo, rat (male Sprague-Dawley); conditions: i.p. 120-180 mg/kg
[5] = test system: long-term potentiation in CA1 field of hippocampal slices; assay: Promotion of long-term potentiation (LTP) in CA1 field of hippocampal slices; format: cell-based, rat; conditions: 1.5 mM, theta burst stimulation; vs absence of drug, p<0.02; FIG. 3
Method: Long-term potentiation (LTP; a stable increase in the EPSP size of single responses after brief periods of high frequency stimulation) was elicited in the CA1 field of hippocampal slices in the absence (see FIG. 3, stippled bars, N=6) and in the presence of 1.5 mM of Invention Compound I (see FIG. 3, striped bars, N=5). In the latter case, the amount of potentiation was determined after washing out the test compound and comparing the response size with that before test compound infusion. Data presented in FIG. 3 show the percent increase in the EPSP amplitude (mean and S.D.) at 40, 60, and 90 minutes after LTP induction.
For these studies, field EPSPs in slices of hippocampus were elicited by single stimulation pulses and recorded by extracellular electrodes as described in Example II. After collecting responses every 40 seconds for 20-30 minutes to establish a baseline, LTP was induced with ten short bursts of pulses delivered to the CA3 axons; each burst consisted of four pulses separated by 10 milliseconds; the interval between the bursts was 200 milliseconds. This pattern of axon stimulation mimics a discharge rhythm observed in the hippocampus of animals engaged in learning and is referred to as the "theta burst stimulation paradigm" [see, for example, Larson and Lynch in Science Vol. 232: 985-988 (1986)]. […]

SMILES	conversion to anisoyl-GABA [1]	time to reversal of the increased response duration [2]	effect on duration / decay of synaptic responses ([2]; anesthetized rats, FIG. 4)	blood-brain barrier passage ([2]; inferred from EPSP effect)	increase in area of the field EPSP ([3]; 100 μM, mean and S.D. of 4 experiments)	increase in response area relative to aniracetam ([3]; 750 μM)	onset and reversibility of effect ([3]; 750 μM, 15 min infusion, washout, FIG. 1)	effect on amplitude, duration (half-width) and area of synaptic response ([3]; 750 μM, 15 min infusion, FIG. 1)	EC50 ([3]; percent increase in field EPSP amplitude, log dose/response, maximal response of 85% increase assumed where solubility was limiting, read-out: EC50 (field EPSP amplitude))	electrographic seizures [4]	degree of stable long-term potentiation [5]
COc1ccc(C(=O)N2CCCC2=O)cc1 [aniracetam, N-anisoyl-2-pyrrolidinone]	about 80%										
O=C(c1ccc2c(c1)OCCO2)N1CC=CCC1 [Invention Compound I]		60 to 120 min	slows the decay rate of synaptic responses; also recorded: rapid increase in the duration of the synaptic response; also recorded: somewhat larger for the second (primed) response; also recorded: reversibly prolong synaptic responses in the hippocampus	sufficient amounts of the test compound cross the blood-brain barrier	46±16%	nine	the effects occur quickly after infusion (horizontal bar) and reverse upon washout; also recorded: rapid onset of action and was fully reversible upon washout	increases the amplitude and duration (measured as half-width) of synaptic responses; also recorded: much larger effect than does aniracetam at twice the concentration; also recorded: the magnitude of the effects was much greater	500 µM	in no case did injections of Invention Compound I produce electrographic seizures	increases the magnitude of long-term potentiation; also recorded: nearly twice as large; also recorded: facilitate induction of maximal long-term potentiation in vitro
